According to ChEMBL document CHEMBL1201862, “PubChem BioAssay data set” (2004):
Activity calls are given as the source filed them.

How the values were obtained:
[1] = target: Dual specificity protein kinase CLK1 (Homo sapiens, UniProt P49759); assay: inhibition of human CLK1 activity – biochemical, cherry-picked samples, selectivity assay for Dyrk1A inhibitor project, dose response (AID 588811)
Cytochrome P450 2C19 = Cytochrome P450 2C19 (Homo sapiens, UniProt P33261); assay: Cytochrome panel assay with activity outcomes. Panel member name: p450-cyp2c19 Compounds with AC50 equal or less than 10 uM are considered active; type: functional; details: read-out: AC50
Cytochrome P450 2C9 = Cytochrome P450 2C9 (Homo sapiens, UniProt P11712)
Vero [2] = assay: cells; type: functional; details: Chlorocebus sabaeus
[3] = Luminescent dose response cell-based high throughput screening assay for inhibitors of the Janus kinase 2 mutant JAK2V617F. [Related pubchem assays: 1446 (Primary screen.), 1521 (Confirmation assay.), 1486 (Counter screen.)]; type: functional
Vero [4] = assay: cells; type: functional, cell-based; details: Chlorocebus sabaeus
CAAX prenyl protease 1 = CAAX prenyl protease 1 (Saccharomyces cerevisiae S288c, UniProt P47154); assay: yeast CAAX protease Ste24 inhibition – biochemical, S. cerevisiae, plate reader, cherry-pick, dose response (AID 488815)
CAAX prenyl protease 2 [5] = target: T1, CAAX prenyl protease 2 (Saccharomyces cerevisiae S288c, UniProt Q03530); type: biochemical
T1 sequence (Q03530 whole entry): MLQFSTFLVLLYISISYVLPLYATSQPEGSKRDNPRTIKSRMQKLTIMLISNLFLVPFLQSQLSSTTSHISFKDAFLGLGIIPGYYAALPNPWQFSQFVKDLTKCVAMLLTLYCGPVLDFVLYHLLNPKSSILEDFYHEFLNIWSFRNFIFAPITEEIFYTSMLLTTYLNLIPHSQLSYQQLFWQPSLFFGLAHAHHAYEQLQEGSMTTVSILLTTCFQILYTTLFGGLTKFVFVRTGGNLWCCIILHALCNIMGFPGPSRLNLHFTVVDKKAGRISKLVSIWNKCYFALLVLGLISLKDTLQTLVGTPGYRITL

INS1 = assay: INS-1E survival protection against cytokine death – cell-based, luminescence, retest, dose response (AID 449756); type: functional; details: Rattus norvegicus, INS1;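 further: cell death triggered by IL-1 beta plus TNF-alpha plus IFN-gamma mixture; protective hits raise ATP signal compared with cytokine alone wells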
Protein Wnt-3a = Protein Wnt-3a (Mus musculus, UniProt P27467); assay: antagonism of Wnt3a pathway luciferase reporter – Wnt-LIGHT cells, luminescence, selectivity assay for Gli-SUFU antagonist project, dose response (AID 651570); type: functional; details: read-out: IC50_Mean;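 further: Wnt-LIGHT reporter cells stimulated with conditioned medium from Wnt3a-producing cells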
[6] = Luminescence Cell-Based Dose Retest to Confirm Inhibitors of Cancer Stem Cells. [Related pubchem assays (depositor defined):AID2717, AID2721]; type: functional; details: Homo sapiens
Galanin receptor type 2 = Galanin receptor type 2 (Homo sapiens, UniProt O43603); assay: Dose Response cell-based high-throughput screening assay to identify antagonists of galanin receptor 2 (GALR2). [Related pubchem assays: 828, 866 ]; type: functional
[7] = viability loss of HMLE_sh_eGFP cells – cell-based, luminescence, counter-screen for HMLE_sh_ECad selective toxicity project, dose response (AID 463074); type: functional, Homo sapiens;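 further: HMLE human mammary epithelial cells expressing control shRNA against eGFP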
cells = type: functional, cell-based; details: HEK-CNG
Galanin receptor type 3 = target: T2, Galanin receptor type 3 (Homo sapiens, UniProt O60755); assay: Fluorescence-based cell-based primary high throughput dose response assay to identify antagonists of the Galanin Receptor 3 (GalR3).; type: functional
T2 sequence (O60755 whole entry): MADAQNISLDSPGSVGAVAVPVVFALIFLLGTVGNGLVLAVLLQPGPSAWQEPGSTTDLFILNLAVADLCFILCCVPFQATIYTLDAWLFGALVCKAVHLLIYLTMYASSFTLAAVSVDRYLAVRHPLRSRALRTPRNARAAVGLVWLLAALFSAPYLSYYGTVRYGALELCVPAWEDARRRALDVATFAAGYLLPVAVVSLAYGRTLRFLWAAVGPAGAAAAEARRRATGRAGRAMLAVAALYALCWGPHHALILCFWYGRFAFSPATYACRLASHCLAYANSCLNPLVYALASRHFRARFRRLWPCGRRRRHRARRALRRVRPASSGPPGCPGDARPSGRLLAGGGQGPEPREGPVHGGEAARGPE

[8] = target: Dual specificity tyrosine-phosphorylation-regulated kinase 1A (Rattus norvegicus, UniProt Q63470); type: biochemical, Homo sapiens
Trypsin = Trypsin (Sus scrofa, UniProt P00761); assay: trypsin protease activity blockade – biochemical, quenched peptide fluorescence, cherry-pick, selectivity assay for Rce1 protease inhibitor project, dose response (AID 488789)
[9] = target: T3, Runt-related transcription factor 1/Core-binding factor subunit beta (Homo sapiens, UniProt Q01196+Q13951); assay: disruptors of Runt domain/CBFb-SMMHC interaction – biochemical, FRET, Cerulean-Runt, Venus-CBFb-SMMHC, uHTS, […] (AID 1434); type: protein assay
CAAX prenyl protease 2 [10] = target: CAAX prenyl protease 2 (Homo sapiens, UniProt Q9Y256); assay: inhibition of Ras-converting CAAX protease Rce1 – biochemical, yeast membranes, quenched-peptide fluorescence, cherry-pick, dose response (AID 588849)
[11] = target: T3, Runt-related transcription factor 1/Core-binding factor subunit beta; assay: Runt domain/CBFb-SMMHC interaction disruptors – biochemical, TR-FRET (AID 1438); type: protein assay
HEK293 [12] = assay: cells; details: Homo sapiens
HEK293 [13] = assay: cells; type: functional, cell-based; details: Homo sapiens
HEK293 [14] = assay: cells; type: functional, cell-based; details: Homo sapiens; remark: listed apart in the source
[15] = target: Nucleotide-binding oligomerization domain-containing protein 1 (Homo sapiens, UniProt Q9Y239); assay: blockers of NOD1 pathway activity – revised, SAR follow-up (AID 2333); type: functional
Tumor necrosis factor = Tumor necrosis factor (Homo sapiens, UniProt P01375); assay: analog potency on TNFa NF-kB signaling – cell-based, revised, SAR follow-up (AID 2337); type: functional
HEK293 [16] = assay: inhibition of NOD1-driven NF-kB reporter – cell-based, luminescence, uHTS, primary screen (AID 1578); type: functional; details: Homo sapiens
[17] = target: T4, COUP transcription factor 2 (Homo sapiens, UniProt P24468); assay: Luminescence-based cell-based high throughput dose response assay to identify inhibitors of COUP-TFII (NR2F2).; type: functional;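 further: HEK293 cells transiently cotransfected with COUP-TFII expression vector and reporter; luciferase reporter luminescence driven by COUP-TFII from the pX2-168 reporter plasmid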
T4 sequence (P24468 whole entry): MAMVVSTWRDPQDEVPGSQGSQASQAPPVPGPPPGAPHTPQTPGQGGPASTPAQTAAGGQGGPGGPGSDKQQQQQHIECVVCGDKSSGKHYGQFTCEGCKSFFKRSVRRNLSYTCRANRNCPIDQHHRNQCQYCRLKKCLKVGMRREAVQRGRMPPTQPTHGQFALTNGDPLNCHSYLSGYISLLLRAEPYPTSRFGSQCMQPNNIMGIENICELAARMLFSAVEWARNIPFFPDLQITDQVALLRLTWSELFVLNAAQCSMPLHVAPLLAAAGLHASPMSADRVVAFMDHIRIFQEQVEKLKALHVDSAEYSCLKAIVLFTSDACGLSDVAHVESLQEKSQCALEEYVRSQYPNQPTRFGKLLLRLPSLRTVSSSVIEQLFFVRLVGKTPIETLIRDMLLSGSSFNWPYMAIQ

HEK293 [18] = assay: NOD2 signaling inhibitors in MDP-stimulated cells, cell-based, uHTS, luminescence (AID 2001); type: functional; details: Homo sapiens
NIH3T3 = assay: mammalian cell viability counter-check – Alamar Blue, fluconazole, dry powder, cytotoxicity control for antifungal drug resistance project, dose response (AID 488809); type: functional, cell-based; details: Mus musculus
Hexokinase-1 = target: T5, Hexokinase-1 (Homo sapiens, UniProt P19367); assay: hexokinase 1 activity inhibitors, potency – biochemical, set 2, resazurin fluorescence coupled readout, selectivity assay for HKDC1 inhibitor project, SAR follow-up (AID 588356); type: functional
T5 sequence (P19367 whole entry): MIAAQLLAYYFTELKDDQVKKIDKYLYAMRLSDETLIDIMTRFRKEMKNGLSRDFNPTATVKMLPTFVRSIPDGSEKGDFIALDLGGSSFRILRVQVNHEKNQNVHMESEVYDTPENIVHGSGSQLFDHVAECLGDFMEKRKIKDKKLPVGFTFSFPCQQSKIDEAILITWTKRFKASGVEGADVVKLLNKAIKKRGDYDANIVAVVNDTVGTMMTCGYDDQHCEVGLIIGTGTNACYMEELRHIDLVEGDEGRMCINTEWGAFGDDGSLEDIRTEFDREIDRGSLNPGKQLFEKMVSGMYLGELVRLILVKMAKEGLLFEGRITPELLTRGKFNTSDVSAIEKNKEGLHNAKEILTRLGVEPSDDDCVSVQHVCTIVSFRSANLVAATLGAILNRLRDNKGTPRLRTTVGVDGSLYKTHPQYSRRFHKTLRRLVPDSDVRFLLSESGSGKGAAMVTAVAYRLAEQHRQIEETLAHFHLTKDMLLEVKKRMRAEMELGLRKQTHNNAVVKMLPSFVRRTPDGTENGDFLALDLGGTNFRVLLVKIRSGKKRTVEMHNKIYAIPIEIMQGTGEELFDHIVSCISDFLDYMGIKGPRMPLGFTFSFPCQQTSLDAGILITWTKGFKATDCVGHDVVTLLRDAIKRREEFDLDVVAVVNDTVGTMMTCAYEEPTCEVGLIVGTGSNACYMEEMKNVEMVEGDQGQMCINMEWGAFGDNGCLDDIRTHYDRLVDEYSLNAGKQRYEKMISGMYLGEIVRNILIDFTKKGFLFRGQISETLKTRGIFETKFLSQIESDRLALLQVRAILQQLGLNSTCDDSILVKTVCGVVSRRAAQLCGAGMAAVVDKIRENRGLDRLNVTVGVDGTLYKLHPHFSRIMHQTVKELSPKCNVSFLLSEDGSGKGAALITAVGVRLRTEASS

Hexokinase HKDC1 = target: T6, Hexokinase HKDC1 (Homo sapiens, UniProt Q2TB90); assay: analog inhibition of human HKDC1 activity – biochemical, set 2, SAR follow-up (AID 588355); type: functional
T6 sequence (Q2TB90 whole entry): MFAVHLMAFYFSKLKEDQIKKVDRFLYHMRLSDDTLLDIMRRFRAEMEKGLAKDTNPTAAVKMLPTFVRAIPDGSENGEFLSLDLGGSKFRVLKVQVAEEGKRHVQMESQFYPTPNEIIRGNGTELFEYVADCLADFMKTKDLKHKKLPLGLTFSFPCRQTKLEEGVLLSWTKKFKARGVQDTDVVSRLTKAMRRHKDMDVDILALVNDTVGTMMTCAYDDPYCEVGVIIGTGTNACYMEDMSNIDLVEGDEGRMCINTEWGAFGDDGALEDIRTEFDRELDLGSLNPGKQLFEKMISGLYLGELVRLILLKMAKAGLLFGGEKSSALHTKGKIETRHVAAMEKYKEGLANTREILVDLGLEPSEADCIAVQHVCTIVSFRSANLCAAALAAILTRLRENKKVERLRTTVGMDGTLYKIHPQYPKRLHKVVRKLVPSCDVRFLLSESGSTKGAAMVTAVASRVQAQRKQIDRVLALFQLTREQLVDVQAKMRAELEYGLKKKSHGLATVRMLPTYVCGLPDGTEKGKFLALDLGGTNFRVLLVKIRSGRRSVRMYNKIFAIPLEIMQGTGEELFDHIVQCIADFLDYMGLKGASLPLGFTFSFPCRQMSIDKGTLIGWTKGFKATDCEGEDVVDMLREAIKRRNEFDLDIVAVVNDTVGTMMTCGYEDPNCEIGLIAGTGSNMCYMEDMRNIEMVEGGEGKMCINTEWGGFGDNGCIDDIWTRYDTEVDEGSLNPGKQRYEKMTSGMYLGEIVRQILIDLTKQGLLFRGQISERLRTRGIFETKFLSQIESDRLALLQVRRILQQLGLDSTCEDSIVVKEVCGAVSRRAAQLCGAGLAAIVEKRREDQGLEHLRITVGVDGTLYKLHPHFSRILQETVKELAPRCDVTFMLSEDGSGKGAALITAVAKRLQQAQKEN

[19] = target: Voltage-gated inwardly rectifying potassium channel KCNH2 (Homo sapiens, UniProt Q12809); details: Potency;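 further: confirmatory quantitative high-throughput screen measuring inhibition of hERG channel activity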
Cytochrome P450 3A4 = Cytochrome P450 3A4 (Homo sapiens, UniProt P08684);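 further: CYP3A4 tested as one member of a cytochrome P450 panel screen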
Sequence of Cytochrome P450 3A4 (P08684 whole entry): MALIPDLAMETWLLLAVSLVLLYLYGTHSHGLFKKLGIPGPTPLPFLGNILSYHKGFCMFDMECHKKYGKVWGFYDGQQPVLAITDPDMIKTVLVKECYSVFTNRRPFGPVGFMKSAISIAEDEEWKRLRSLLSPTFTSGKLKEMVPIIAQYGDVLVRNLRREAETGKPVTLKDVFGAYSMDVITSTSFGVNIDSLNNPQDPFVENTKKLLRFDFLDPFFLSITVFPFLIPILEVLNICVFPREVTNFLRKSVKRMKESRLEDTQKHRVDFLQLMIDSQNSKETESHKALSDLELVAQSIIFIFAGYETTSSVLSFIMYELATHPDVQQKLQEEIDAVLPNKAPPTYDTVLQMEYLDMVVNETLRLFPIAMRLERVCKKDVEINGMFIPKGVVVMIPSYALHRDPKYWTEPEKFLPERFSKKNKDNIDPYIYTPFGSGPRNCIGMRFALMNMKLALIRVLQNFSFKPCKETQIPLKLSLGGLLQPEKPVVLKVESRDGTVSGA

T3 sequence (Q01196 whole entry, the tested form may be a part): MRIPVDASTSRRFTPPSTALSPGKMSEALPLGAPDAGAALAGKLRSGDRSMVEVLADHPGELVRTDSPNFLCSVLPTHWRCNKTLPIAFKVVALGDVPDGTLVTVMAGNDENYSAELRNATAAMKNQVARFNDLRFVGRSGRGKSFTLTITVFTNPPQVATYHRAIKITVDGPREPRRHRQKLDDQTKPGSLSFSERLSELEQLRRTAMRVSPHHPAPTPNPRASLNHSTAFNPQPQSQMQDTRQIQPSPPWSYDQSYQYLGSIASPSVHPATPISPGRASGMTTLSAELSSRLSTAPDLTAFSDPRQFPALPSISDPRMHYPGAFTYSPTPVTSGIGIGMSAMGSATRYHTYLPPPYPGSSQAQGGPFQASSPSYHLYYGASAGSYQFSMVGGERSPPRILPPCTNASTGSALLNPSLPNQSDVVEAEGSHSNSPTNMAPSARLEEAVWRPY
T3 sequence (Q13951 whole entry, the tested form may be a part): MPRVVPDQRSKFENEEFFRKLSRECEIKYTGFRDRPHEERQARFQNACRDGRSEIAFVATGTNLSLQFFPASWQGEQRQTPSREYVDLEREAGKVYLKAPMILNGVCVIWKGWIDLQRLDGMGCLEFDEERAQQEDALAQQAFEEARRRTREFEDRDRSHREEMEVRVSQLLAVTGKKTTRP
Sequence of Dual specificity protein kinase CLK1 (P49759 whole entry): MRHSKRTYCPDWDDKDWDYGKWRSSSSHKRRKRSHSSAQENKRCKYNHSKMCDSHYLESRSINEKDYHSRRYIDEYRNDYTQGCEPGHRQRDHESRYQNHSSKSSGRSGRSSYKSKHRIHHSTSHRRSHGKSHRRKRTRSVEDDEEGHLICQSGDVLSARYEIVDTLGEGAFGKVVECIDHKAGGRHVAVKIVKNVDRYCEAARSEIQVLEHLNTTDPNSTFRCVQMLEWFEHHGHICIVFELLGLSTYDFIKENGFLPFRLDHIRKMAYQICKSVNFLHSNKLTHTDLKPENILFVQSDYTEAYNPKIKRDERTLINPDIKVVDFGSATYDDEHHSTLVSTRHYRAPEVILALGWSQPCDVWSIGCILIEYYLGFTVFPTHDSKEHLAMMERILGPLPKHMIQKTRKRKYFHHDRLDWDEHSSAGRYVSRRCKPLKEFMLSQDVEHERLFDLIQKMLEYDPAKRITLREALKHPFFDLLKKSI
Sequence of Cytochrome P450 2C19 (P33261 whole entry): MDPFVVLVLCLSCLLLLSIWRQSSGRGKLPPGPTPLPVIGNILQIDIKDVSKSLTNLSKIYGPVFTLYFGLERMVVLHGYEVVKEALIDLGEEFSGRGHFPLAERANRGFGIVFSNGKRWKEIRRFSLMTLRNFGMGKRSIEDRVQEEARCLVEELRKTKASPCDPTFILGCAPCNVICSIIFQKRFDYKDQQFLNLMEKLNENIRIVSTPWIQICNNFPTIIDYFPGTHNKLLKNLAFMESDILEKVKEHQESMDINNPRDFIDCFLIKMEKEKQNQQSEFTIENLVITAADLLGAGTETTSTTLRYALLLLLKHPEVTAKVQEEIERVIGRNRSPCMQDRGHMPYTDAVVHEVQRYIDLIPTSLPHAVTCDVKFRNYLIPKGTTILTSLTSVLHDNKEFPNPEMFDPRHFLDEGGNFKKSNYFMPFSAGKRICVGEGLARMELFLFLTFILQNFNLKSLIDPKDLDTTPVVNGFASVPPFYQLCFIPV
Sequence of Tumor necrosis factor (P01375 whole entry): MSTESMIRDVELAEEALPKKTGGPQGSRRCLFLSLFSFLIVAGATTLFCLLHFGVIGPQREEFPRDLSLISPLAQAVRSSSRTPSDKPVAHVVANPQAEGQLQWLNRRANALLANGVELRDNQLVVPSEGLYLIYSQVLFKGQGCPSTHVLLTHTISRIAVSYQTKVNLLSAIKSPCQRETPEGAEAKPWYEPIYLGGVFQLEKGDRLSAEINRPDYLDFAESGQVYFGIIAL
Sequence of Cytochrome P450 2C9 (P11712 whole entry): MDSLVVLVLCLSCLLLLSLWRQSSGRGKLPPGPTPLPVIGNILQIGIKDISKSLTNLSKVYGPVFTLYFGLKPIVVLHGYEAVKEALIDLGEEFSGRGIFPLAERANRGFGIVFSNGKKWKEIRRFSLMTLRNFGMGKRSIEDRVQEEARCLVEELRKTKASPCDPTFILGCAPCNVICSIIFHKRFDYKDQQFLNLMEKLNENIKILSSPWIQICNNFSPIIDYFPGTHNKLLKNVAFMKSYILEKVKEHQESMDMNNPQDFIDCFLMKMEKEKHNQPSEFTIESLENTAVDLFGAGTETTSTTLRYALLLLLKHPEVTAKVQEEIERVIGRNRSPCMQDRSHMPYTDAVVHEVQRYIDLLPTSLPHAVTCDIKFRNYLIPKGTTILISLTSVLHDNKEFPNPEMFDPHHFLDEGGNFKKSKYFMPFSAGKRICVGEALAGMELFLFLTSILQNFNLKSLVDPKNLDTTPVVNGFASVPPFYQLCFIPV
Sequence of Protein Wnt-3a (P27467 whole entry): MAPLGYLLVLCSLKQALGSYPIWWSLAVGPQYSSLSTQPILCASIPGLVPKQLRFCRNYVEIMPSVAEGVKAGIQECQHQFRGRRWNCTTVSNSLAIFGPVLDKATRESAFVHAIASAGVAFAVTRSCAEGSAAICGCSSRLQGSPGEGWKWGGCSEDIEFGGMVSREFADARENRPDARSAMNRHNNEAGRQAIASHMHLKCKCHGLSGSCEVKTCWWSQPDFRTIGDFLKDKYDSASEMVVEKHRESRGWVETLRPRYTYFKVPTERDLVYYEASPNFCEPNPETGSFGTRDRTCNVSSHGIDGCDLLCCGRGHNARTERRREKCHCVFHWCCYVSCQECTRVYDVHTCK
Sequence of CAAX prenyl protease 2 (Homo sapiens, UniProt Q9Y256) (Q9Y256 whole entry, the tested form may be a part): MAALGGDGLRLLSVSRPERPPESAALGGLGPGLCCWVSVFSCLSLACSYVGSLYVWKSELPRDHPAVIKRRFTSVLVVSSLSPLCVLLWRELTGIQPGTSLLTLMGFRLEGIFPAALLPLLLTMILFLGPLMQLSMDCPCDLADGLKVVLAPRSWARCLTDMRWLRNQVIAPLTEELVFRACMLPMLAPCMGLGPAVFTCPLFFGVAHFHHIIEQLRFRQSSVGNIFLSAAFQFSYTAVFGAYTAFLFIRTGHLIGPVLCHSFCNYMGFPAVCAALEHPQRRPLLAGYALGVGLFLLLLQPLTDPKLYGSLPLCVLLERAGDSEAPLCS
Sequence of Galanin receptor type 2 (O43603 whole entry): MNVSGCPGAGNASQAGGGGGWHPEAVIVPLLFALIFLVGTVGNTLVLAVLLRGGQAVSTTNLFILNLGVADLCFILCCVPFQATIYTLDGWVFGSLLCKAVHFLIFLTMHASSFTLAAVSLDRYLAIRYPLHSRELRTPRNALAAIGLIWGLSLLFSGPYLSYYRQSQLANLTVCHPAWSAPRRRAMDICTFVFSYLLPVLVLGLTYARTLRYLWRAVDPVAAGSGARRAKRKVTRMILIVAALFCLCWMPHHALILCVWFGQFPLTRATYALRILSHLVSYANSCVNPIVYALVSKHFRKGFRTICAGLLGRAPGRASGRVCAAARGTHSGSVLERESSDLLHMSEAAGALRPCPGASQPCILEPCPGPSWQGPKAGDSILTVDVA
Sequence of CAAX prenyl protease 1 (P47154 whole entry): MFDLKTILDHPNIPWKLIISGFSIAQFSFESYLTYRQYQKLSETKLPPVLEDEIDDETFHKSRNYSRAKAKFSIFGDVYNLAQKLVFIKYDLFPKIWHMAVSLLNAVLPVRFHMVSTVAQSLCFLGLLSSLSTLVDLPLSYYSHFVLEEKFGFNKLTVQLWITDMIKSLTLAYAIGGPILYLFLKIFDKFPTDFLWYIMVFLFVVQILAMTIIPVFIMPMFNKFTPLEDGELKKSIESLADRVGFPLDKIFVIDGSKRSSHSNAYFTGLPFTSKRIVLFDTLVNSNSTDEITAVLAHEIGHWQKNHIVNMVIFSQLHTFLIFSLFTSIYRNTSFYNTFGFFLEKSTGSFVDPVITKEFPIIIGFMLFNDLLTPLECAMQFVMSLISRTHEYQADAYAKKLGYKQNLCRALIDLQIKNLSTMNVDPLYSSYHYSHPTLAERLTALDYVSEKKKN
Sequence of Trypsin (P00761 whole entry, the tested form may be a part): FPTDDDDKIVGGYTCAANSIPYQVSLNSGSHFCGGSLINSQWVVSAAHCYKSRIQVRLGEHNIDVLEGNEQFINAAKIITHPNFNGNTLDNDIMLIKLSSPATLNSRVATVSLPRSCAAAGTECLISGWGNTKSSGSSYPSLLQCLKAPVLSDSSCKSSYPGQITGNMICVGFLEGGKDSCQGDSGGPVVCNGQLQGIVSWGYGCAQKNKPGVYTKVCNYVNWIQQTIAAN

c1cncc(CNc2cc(-c3ccc4c(c3)OCO4)ncn2)c1
AC50 [1]: 5.2 µM (active)
AC50 (Cytochrome P450 2C19): 25.1 µM (inconclusive)
AC50 (Cytochrome P450 2C9): 0.316 µM (inconclusive)

COc1cc(/C=C2\COC/C(=C\c3ccc(O)c(OC)c3)C2=O)ccc1O
CC50 (Vero [2]): 5.27 µM (active)
IC50 [3]: 1.15 µM (active)
IC50 (Vero [4]): > 25 µM (active)

Cc1cc(C)c2cc(C#N)c(NCCCNC(=O)CCC(=O)O)nc2c1
AC50 (CAAX prenyl protease 1): 29.9 µM (active)
AC50 (CAAX prenyl protease 2 [5]): 36.9 µM (active)

CCCCOc1[nH]cnc2c3cc(F)ccc3nc1-2
AC50 (INS1): 4.34 µM (active)
IC50 (Protein Wnt-3a): 1.56 µM (active)
AC50 [6]: > 195 µM (inactive)
IC50 (Galanin receptor type 2): 472 µM (not active)
AC50 [7]: 52.7 µM (active)
EC50 (cells): > 29.9 µM (inactive)
IC50 (Galanin receptor type 3): 2.19 µM (active)

COc1ccc2c(c1)CCc1sc(NC(=O)c3ccco3)nc1-2
AC50 [8]: 2.01 µM (active)

Cc1ccc(S(=O)(=O)Oc2ccc(C3C4=C(CCCC4=O)N(CCC(=O)O)C4=C3C(=O)CCC4)cc2Cl)cc1
AC50 (Trypsin): 6.27 µM (active)
IC50 [9]: 0.393 µM (active)
AC50 (CAAX prenyl protease 2 [10]): 11.4 µM (active)
IC50 [11]: 14.6 µM (active)

CSc1ccccc1OCc1cc(C(=O)N2CCC(c3ccncc3)CC2)no1
IC50 (HEK293 [12]): > 20 µM (inactive)
IC50 (HEK293 [13]): 8.95 µM (active)
IC50 (HEK293 [14]): 3.97 µM (active)
IC50 [15]: 3.18 µM (active)
IC50 (Tumor necrosis factor): 3.22 µM (active)
EC50 (HEK293 [16]): 2.09 µM (active)
IC50 [17]: 10.3 µM (inactive)
IC50 (HEK293 [18]): 5.04 µM (active)

O=C(c1ccc(Cl)cc1)N1CCN(c2cc(C(F)(F)F)nc3ccccc23)CC1
AC50 (NIH3T3): 23.2 µM (active)

Cc1ccc(N2C(=O)c3cccnc3C2Nc2ccc(C)c(C)c2)cc1 (stereo not drawn)
IC50 (Hexokinase-1): > 80 µM (inactive)
IC50 (Hexokinase HKDC1): > 80 µM (inactive)

O=S(=O)(O)C1CCNCC1
AC50 [19]: 22.4 µM (inconclusive)
AC50 (Cytochrome P450 3A4): inconclusive
